In BindingDB's records for doi:10.1074/jbc.M110.107094 (Sanford-Burnham Medical Research Institute, 2010):

Experiments:
Assay in all cases: Inhibition Assay
Conditions in all cases: 37 °C
[1] = molecular target: T1, Matrix metalloproteinase-25 (Homo sapiens, UniProt Q9NPA2)
T1 sequence (Q9NPA2 whole entry): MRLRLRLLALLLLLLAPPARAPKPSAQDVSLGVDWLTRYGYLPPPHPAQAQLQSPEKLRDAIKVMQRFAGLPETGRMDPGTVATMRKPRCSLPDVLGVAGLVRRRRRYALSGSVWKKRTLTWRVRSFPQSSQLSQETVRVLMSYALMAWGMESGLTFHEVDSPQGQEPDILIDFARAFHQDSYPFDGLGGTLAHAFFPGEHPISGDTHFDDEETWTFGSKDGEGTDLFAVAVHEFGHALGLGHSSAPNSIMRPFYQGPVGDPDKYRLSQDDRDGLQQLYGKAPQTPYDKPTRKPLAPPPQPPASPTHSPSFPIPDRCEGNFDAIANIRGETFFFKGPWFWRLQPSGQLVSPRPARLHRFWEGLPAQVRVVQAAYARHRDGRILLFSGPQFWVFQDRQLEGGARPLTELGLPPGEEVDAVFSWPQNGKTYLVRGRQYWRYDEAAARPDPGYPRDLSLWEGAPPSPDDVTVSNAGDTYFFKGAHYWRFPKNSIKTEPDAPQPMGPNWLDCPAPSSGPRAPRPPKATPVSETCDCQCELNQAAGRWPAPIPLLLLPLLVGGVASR
Excerpt: (§1) Inhibition of IC50 using matrix metalloproteinase.

[2] = molecular target: Matrix metalloproteinase-9 (Homo sapiens, UniProt P14780)
Excerpt: as §1

[3] = molecular target: T2, Matrix metalloproteinase-14 [1-20,P8S] (Homo sapiens, UniProt P50281, P8S)
T2 construct: 1-20
Excerpt: as §1

[4] = molecular target: 72 kDa type IV collagenase (Homo sapiens, UniProt P08253)
Excerpt: as §1

Sequence of 72 kDa type IV collagenase (P08253 whole entry): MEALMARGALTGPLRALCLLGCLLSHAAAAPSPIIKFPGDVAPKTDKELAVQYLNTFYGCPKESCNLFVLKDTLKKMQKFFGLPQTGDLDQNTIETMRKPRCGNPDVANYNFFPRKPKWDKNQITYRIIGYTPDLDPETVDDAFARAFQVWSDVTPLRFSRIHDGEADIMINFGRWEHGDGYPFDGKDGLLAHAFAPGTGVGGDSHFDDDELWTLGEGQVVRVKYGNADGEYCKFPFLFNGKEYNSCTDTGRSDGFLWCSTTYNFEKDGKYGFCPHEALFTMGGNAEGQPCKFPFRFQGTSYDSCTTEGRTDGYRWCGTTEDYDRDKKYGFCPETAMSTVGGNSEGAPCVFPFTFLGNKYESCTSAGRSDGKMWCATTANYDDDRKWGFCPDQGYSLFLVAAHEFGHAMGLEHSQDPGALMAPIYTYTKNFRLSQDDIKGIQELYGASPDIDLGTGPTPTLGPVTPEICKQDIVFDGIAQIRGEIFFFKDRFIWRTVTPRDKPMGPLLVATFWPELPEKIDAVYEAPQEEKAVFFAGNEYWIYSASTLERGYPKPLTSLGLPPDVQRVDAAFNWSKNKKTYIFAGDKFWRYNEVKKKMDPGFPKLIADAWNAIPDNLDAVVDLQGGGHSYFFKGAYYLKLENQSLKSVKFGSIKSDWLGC
Sequence of Matrix metalloproteinase-9 (P14780 whole entry): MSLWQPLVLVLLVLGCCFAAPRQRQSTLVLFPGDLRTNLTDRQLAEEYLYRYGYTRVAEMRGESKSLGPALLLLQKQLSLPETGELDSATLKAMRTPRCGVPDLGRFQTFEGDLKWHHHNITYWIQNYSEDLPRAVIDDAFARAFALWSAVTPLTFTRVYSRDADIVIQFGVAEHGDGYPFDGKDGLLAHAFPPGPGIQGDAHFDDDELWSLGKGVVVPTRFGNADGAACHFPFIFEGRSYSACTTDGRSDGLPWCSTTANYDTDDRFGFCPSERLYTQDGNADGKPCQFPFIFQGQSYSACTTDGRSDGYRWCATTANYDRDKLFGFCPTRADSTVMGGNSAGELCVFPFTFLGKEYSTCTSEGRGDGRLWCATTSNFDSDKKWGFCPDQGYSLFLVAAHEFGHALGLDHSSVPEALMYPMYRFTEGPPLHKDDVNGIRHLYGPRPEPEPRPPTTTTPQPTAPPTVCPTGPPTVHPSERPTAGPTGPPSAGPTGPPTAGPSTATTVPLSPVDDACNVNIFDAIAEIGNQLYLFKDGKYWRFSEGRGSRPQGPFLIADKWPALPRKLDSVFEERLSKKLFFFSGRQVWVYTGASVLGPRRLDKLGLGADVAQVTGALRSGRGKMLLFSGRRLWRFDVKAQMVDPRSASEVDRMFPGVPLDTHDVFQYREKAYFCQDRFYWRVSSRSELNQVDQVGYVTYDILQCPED

| Structure (SMILES) | IC50 [1] [µM] | IC50 [2] [µM] | IC50 [3] [µM] | IC50 [4] [µM] |
| --- | --- | --- | --- | --- |
| O=C(CCS(=O)(=O)c1ccccc1)NO [BI-92G11] | 0.9 | > 50 | 10.9 | 1.9 |
| CCOc1ccc(-c2ccccc2C(=O)NO)cc1 [BI-102C8] | 2.5 | > 100 | > 100 | > 100 |
